# From the METLIN SMRT retention time set (Domingo-Almenara et al. 2019)
# Assay: gradient 5% acetonitrile 3 min, to 50% in 2 min, to 85% in 15 min, held 3 min, 100 µL/min
# Conditions: column: Zorbax Extend-C18 2.1 x 50 mm; eluents: water / acetonitrile, 0.1% formic acid
# In short: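 A Zorbax Extend-C18 column (2.1 × 50 mm, 1.8 μm) run at 100 μL/min with water and acetonitrile, both containing 0.1% formic acid, separated mixtures of ~100 pure standards. The HPLC was coupled to a quadrupole time-of-flight mass spectrometer operated in positive and negative ionization mode, with dead and dwell volumes of 40 μL and 900 μL. Each retention time was taken from a computationally picked adduct peak that was then manually inspected.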
row,Structure (SMILES),RP-LC retention time [s]
1,COc1ccc(-c2cc(=S)ss2)cc1,1090
2,O=c1[nH]c2ccc(NCc3ccc(-c4ccccc4Cl)o3)cc2[nH]1,717
3,COc1cccc(NC(=O)Cn2c(=O)c3cc(C4CC4)nn3c3ncccc32)c1,763
4,Cc1oc2ccn(Cc3ccc(F)cc3)c(=O)c2c1C(=O)NCc1cc(F)cc(F)c1,1130
5,COc1ccc(NC(=O)CSc2cc(N3CCN(c4ccccc4OC)CC3)ncn2)cc1,877
6,C=CCc1ccccc1OCC(O)CNC (stereo not given),566
7,CC(=O)N1CCC(CC(=O)N(C)CC2(C)CCOCC2)CC1,594
8,CC(C)S(=O)(=O)N1CCC(F)(c2nc(-c3ccccc3)no2)CC1,1020
9,NC(=O)c1cccn1Cc1ccccc1Cl,804
10,CC(C)Cc1ccc(S(=O)(=O)N2CCc3nc[nH]c3C2)cc1,693
11,CCc1ccccc1NC(=O)N1CCCC1c1cc(C)on1 (stereo not given),774
12,Cc1cc(NC(=O)c2ccccc2)cc(C)c1O,705
13,CCS(=O)(=O)N1CCCc2cc(C(=O)Nc3cc(OC)ccc3OC)ccc21,954
14,Cc1cc2nc(C(=O)Nc3cc(F)ccc3C)cc(C)n2n1,1050
15,CC(C)c1cccc(NC(=O)Cn2ccc3sccc3c2=O)c1,878
16,CCCNC(=O)N1CCCN(S(C)(=O)=O)CC1,582
17,Cc1oc(-c2ccccc2)nc1Cn1nnc(C(=O)Nc2cc(F)ccc2F)c1C,1220
18,CC(=O)N1c2ccc(S(=O)(=O)N3CCCCCC3)cc2CC1C(=O)NCCN(C)C (stereo not given),637
19,CCOc1ccc(NC(=O)c2c(N3CCCC3=O)c3cc(OC)ccc3n2C)cc1,984
20,CC(=O)Nc1ccc(C(=O)N2CCN(c3ccc(F)cc3)CC2)c(N2CCCCC2)c1,833
21,O=C1[C@H]2CN(Cc3ccc(Cl)cc3)C[C@H]2C(=O)N1CCN1CCc2ccccc2C1,740
22,CC(=O)N1c2ccc(S(=O)(=O)N3CCCCC3)cc2CC1C(=O)NC1CCCCC1 (stereo not given),905
23,COc1ccccc1OCCC1CCN(S(=O)(=O)Cc2ccccc2)C1 (stereo not given),692

row,Structure (SMILES),RP-LC retention time [s]
1,CC1CCC(NC(=O)CN2C(=O)C(C(=O)N3CCCCC3)Sc3ccccc32)CC1 (stereo not given),1090
2,Cc1ccc(-c2nnc(Cc3nc(-c4cccc(F)c4)no3)o2)cc1F,1110
3,CCCNC(=O)C1CCCN(c2nc3ncn(CC(=O)Nc4cc(F)ccc4F)c(=O)c3s2)C1 (stereo not given),716
4,Cc1cc2nn(CC(=O)NCc3ccccc3)c(=O)n2c(-c2cccc(F)c2)n1,627
5,O=C(CCn1nnc2cc(S(=O)(=O)N3CCCC3)ccc21)N1CCN(c2ccccn2)CC1,602
6,CCCN1C(=O)c2cc(S(=O)(=O)N3CCOCC3)ccc2Oc2cccnc21,926
7,CCCc1cc(N2CCN(C(=O)c3ccc(F)cc3)CC2)nc2nncn12,620
8,CCOc1ccc(CNC(=O)C2CCN(S(=O)(=O)N(CC(C)C)CC(C)C)CC2)cc1OC,1040
9,Cc1nn(C(C)C(=O)NCCCN(C)c2ccccc2)c(=O)c2c(C)n(-c3ccccc3)nc12 (stereo not given),655
10,Cc1ccc(NS(=O)(=O)c2cc(-c3[nH]ncc3C(=O)N3CCCC3)oc2C)cc1C,776
11,O=C(NCc1ccc2c(c1)OCO2)C1=C2CCCN2c2ccccc2S1(=O)=O,805
12,O=c1c(NCc2ccccc2Cl)nc2ccncc2n1Cc1ccccc1,747
13,CCS(=O)(=O)Nc1ccc(C2(C(=O)NCc3cccc(Cl)c3)CCC2)cc1,876
14,COc1ccccc1-c1noc(C2CCCN2C(=O)COc2ccccc2C)n1 (stereo not given),939
15,Cc1nc(-c2csc(S(=O)(=O)N3CCC(C(=O)N4CCCCC4)CC3)c2)no1,818
16,CN(C)c1ccc(NC(=O)Cn2c(=O)cc(-c3nc(C4CC4)no3)c3ccccc32)cc1,697
17,CCCNC(=O)N1CCN(c2nc3ccccc3n(Cc3ccc(C)cc3)c2=O)CC1,978
18,Cc1nn(CC(=O)NCCCN2CCCC2=O)c(=O)c2nn(-c3ccccc3)c(C)c12,642
19,Cc1ccccc1Nc1c(-c2ccc(N3CCOCC3)cc2)nc2ccc(Br)cn12,795
20,Cc1ccc(C(=O)N2CCc3cc(-c4ccno4)ccc32)cc1,974
21,CCN1C(=O)c2cccnc2Sc2cc(NC(=O)c3ccc(OC)nc3)ccc21,756
22,Cc1csc(-c2cn(CC(=O)Nc3ccc(C)c(F)c3)cn2)n1,728
23,Cc1sc2ccn(Cc3ccc(F)cc3)c(=O)c2c1C(=O)NC(C)C,814

row,Structure (SMILES),RP-LC retention time [s]
1,CC(C)N1CCC2(CC1)N=C(c1ccc(Br)cc1)CC(c1cc(Cl)ccc1O)N2 (stereo not given),711
2,COc1ccc(-c2cc(C(=O)N(C)C3CCN(C)CC3)nn2C2CCS(=O)(=O)C2)cc1 (stereo not given),600
3,CC1CCN(C(=O)C2CCc3sc(C(=O)N4CCOCC4)cc3C2)CC1 (stereo not given),776
4,CCc1ccc(NC(=O)Nc2ccc(NC(=O)N3CCC(C(=O)NC)CC3)cc2)cc1,704
5,CN(C)CCNC(=O)c1csc(-c2ccc(N3CCCC3)nc2)n1,548
6,Cn1nc2n(c1=O)CCN(C(=O)c1cscn1)CC2,560
7,CCOCC(=O)N1C[C@@H]2CCCN3CCC[C@@H]([C@H]23)[C@H]1CCCC(=O)NCC1CC1,574
8,O=C(Cn1nc(C(=O)N2CCCC2)c2ccccc21)NCc1ccc2c(c1)OCO2,757
9,Cc1ccc(Cn2c(CN3CCC(C(=O)NCCC4=CCCCC4)CC3)cc3ccccc32)cc1,952
10,CC(C)Cn1cc(S(=O)(=O)NCc2cccc(C(F)(F)F)c2)c2cccnc21,1070
11,Cc1nc2cccnc2n1CC1CCCN(S(=O)(=O)c2cc(F)ccc2F)C1 (stereo not given),703
12,O=C(CN1C(=O)C2CCCCN2c2ccc(C(=O)N3CCCC3)cc21)NCc1ccccn1 (stereo not given),626
13,Cc1ccc2c(c1)N(S(C)(=O)=O)CCC(C(=O)NC(C)c1ccccc1)O2 (stereo not given),900
14,O=C(NCc1ccc(F)cc1F)C1CCN(c2cncnc2N2CCOCC2)CC1,618
15,Cc1cc(C)cc(NC(=O)C2CC(=O)N(c3n[nH]c4cccc(F)c34)C2)c1 (stereo not given),770
16,Cc1cc(C)c(S(=O)(=O)N2CC(F)(F)C[C@H]2COc2cccnc2)c(C)c1,834
17,O=C1CCN(Cc2ccc(F)cc2F)CCOCCN1,561
18,Cc1ccc(Cl)cc1NCc1nnc2n1CCCCC2,739
19,CCC(C)NC(=O)N1CCN(Cc2nc3cc(C(=O)N4CCCC4)ccc3n2C)CC1 (stereo not given),581
20,Cc1nn(Cc2nc(-c3ccc(NC(=O)C4CCC4)cc3)oc2C)c(C)c1C,881
21,Cc1ccc(C)c(-c2nnc(NC(=O)c3ccccc3[N+](=O)[O-])o2)c1,798
22,CCSc1ccccc1C(=O)Nc1ccc(-c2nc(C)no2)cc1,878
23,COc1ccc(CNC(=O)C2=Cc3cccc(OC)c3OC2)cc1OC,788

row,Structure (SMILES),RP-LC retention time [s]
1,CSc1ccc(-c2nc3cnccn3c2Nc2ccc3c(c2)OCO3)cc1,890
2,COCCn1c(SCc2nc(-c3ccccc3C)no2)nc2cc3c(cc2c1=O)OCO3,1120
3,CC1=C(c2cccc(Cl)c2)S(=O)(=O)N=C1N1CCC(NC(=O)NCC(C)C)CC1,651
4,O=C(NC1CC1)c1ccc(N2CCC(NCc3cc(Br)ccc3O)C2)nc1 (stereo not given),576
5,Cc1nc(-c2ccc3c(c2)CCN3C(=O)C2CCOC2)cs1 (stereo not given),760
6,O=C(O)C1CCN(C(=O)Cc2n[nH]c(=O)c3ccccc23)CC1,581
7,O=C(NCc1ccc2c(c1)OCO2)C1CC(=O)N(c2ccc3c(c2)CCN3C(=O)C2CC2)C1 (stereo not given),714
8,CCOC(=O)N1CCC(NC(=O)c2csc(-n3cccc3)n2)CC1,760
9,CCCN1C(=O)Cc2ccccc2C1C(=O)O (stereo not given),668
10,CCOC(=O)c1c(S(=O)(=O)N2CCC(C(=O)Nc3ccccc3)CC2)c(C)n(CC)c1C,795
11,Nc1cc(C2CCN(C(=O)Nc3ccc(F)cc3F)CC2)no1,666
12,CC1CCN(C(=O)Cc2nnc3cc(-c4nc(C(C)C)no4)ccn23)CC1,770
13,COc1ncc(C(=O)Nc2ccc(C)cc2C)c(C)n1,736
14,CCc1ccccc1NC(=O)C1CCCN(S(=O)(=O)c2cn(C(C)C)cn2)C1 (stereo not given),782
15,CC(C)c1noc(C2(NC(=O)C3CCCC3)CCCCC2)n1,968
16,O=[N+]([O-])c1ccccc1CSc1nnc2sc3ccccc3n12,788
17,CCOC(=O)N1CCN(c2ncnc3c2cnn3-c2cc(Cl)ccc2C)CC1,863
18,CCc1nc(-c2csc(S(=O)(=O)N3CCC(C(=O)N4CCc5ccccc54)CC3)c2)no1,1050
19,CC(C)NC(=O)N1CCCC1c1noc(CCC(=O)NC2CC2)n1 (stereo not given),603
20,Cc1ccc(C)c(CNC(=O)C2CCCN(c3cnc4nccnc4c3)C2)c1 (stereo not given),759
21,CCc1ccccc1S(=O)(=O)NCc1c(-c2ccccc2)nc2sc(C)nn12,940
